Measured values taken from article PMC6917776, “Discovery of a chemical probe for PRDM9” (Nature Communications, 2019).
“And” between values parts separate entries of the source, which are not always exact repeats. Identical values can stand only once. Like-named read-outs stand apart in the source and are kept apart here.

Legend:
PRDM10 = PRDM10 (Homo sapiens, UniProt Q9NQV6); assay: DSF thermal stabilisation, PRDM selectivity; type: binding; conditions: 250 µM MRK-740; 2 mM SAM
Experimental: (§1) DSF measurements were performed as previously described[21] using a Light Cycler 480 II instrument from Roche Applied Science. All proteins tested in these selectivity experiments were used at final concentration of 0.02 mg mL^−1 in a 0.1 M HEPES, pH 7.5 and 150 mM NaCl buffer in the presence of 2 mM SAM. Sypro Orange was purchased from Invitrogen as a 5000 × stock solution (concentration not specified by vendor) and was diluted 1:1000 to yield a 5 × working concentration. The temperature scan curves were fitted to a Boltzmann sigmoid function, and the Tm values were obtained from the midpoint of the transition.

PRDM14 = PRDM14 (Homo sapiens, UniProt Q9GZV8); assay: DSF thermal stabilisation, PRDM selectivity; type: binding; conditions: 250 µM MRK-740; 2 mM SAM
Experimental: as §1

PRDM2 = PRDM2 (Homo sapiens, UniProt Q13029); assay: DSF thermal stabilisation, PRDM selectivity; type: binding; conditions: 250 µM MRK-740; 2 mM SAM
Experimental: as §1

PRDM8 = PRDM8 (Homo sapiens, UniProt Q9NQV8); assay: DSF thermal stabilisation, PRDM selectivity; type: binding; conditions: 250 µM MRK-740; 2 mM SAM
Experimental: as §1

PRDM13 = PRDM13 (Homo sapiens, UniProt Q9H4Q3); assay: DSF thermal stabilisation, PRDM selectivity; type: binding; conditions: 250 µM MRK-740; 2 mM SAM
Experimental: as §1

PRDM1 = PRDM1 (Homo sapiens, UniProt O75626); assay: DSF thermal stabilisation, PRDM selectivity; type: binding; conditions: 250 µM MRK-740; 2 mM SAM
Experimental: as §1

PRDM16 = PRDM16 (Homo sapiens, UniProt Q9HAZ2); assay: DSF thermal stabilisation, PRDM selectivity; type: binding; conditions: 250 µM MRK-740; 2 mM SAM
Experimental: as §1

PRDM3 = PRDM3 (Homo sapiens, UniProt Q03112); assay: DSF thermal stabilisation, PRDM selectivity; type: binding; conditions: 250 µM MRK-740; 2 mM SAM
Experimental: as §1

PRDM6 = PRDM6 (Homo sapiens, UniProt Q9NQX0); assay: DSF thermal stabilisation, PRDM selectivity; type: binding; conditions: 250 µM MRK-740; 2 mM SAM
Experimental: as §1

PRDM11 = PRDM11 (Homo sapiens, UniProt Q9NQV5); assay: DSF thermal stabilisation, PRDM selectivity; type: binding; conditions: 250 µM MRK-740; 2 mM SAM
Experimental: as §1

PRDM12 = PRDM12 (Homo sapiens, UniProt Q9H4Q4); assay: DSF thermal stabilisation, PRDM selectivity; type: binding; conditions: 250 µM MRK-740; 2 mM SAM
Experimental: as §1

Muscarinic M2 = biological target: T1, Muscarinic M2 (Homo sapiens, UniProt P08172); assay: Eurofins Panlabs panel, radioligand binding; conditions: at 10 µM
T1 construct: NIMH Psychoactive Drug Screening Program, University of North Carolina at Chapel Hill
T1 sequence (P08172 1-466): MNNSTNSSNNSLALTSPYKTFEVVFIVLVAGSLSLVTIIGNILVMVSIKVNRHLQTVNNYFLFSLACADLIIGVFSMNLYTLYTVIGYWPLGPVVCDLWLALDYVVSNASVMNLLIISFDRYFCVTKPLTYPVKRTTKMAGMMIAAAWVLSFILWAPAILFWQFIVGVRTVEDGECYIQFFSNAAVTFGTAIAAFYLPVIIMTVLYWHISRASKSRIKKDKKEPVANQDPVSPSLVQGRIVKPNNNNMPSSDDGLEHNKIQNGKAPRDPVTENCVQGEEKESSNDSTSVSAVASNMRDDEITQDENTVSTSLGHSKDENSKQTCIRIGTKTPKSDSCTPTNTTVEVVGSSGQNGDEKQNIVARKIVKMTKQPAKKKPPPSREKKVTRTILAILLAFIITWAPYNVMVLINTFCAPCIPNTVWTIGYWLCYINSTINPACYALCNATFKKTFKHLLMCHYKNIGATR

PRDM9 = biological target: T2, PRDM9 (Homo sapiens, UniProt Q9NQV7); assay: MOA determination: IC50 at varying SAM or peptide concentrations (SPA); type: biochemical
T2 construct: PRDM9 (amino acids: 195–415)
T2 sequence (Q9NQV7 195-415): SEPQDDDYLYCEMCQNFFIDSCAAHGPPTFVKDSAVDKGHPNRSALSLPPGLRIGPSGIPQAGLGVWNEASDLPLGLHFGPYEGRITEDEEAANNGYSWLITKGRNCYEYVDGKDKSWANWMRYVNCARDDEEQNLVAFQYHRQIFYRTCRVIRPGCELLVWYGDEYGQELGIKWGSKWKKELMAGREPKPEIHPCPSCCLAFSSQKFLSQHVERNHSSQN
Excerpt: Reactions (in quadruplicates) were initiated by adding SAM and followed by measuring the methyltransferase activity using SPA assay. The determined IC50 values were fitted against the corresponding substrate concentrations. An increase in IC50 values when concentration of peptide was increased indicated a peptide-competitive pattern of inhibition.

Histamine H3 = biological target: T3, Histamine H3 (Homo sapiens, UniProt Q9Y5N1); assay: GPCR functional activity, GloSensor assay (agonist and antagonist mode); type: cell-based
T3 construct: NIMH Psychoactive Drug Screening Program, University of North Carolina at Chapel Hill
Excerpt: Supplementary Figure 5. Assessment of GPCR functional activity. GloSensor® assay was
profiles were generously provided by the National Institute of Mental Health’s (NIMH)
Psychoactive Drug Screening Program, (Contract # HHSN-271-2013-00017-C) directed by B.L.
Roth, University of North Carolina at Chapel Hill and Project Officer J. Driscoll at NIMH,
Bethesda, Maryland, USA. Further details available at https://pdspdb.unc.edu/pdspWeb/.
MOR stands for “Opiate µ receptor”. […]
[…] Source data are provided as a

PRDM6, sequence (Q9NQX0 whole entry): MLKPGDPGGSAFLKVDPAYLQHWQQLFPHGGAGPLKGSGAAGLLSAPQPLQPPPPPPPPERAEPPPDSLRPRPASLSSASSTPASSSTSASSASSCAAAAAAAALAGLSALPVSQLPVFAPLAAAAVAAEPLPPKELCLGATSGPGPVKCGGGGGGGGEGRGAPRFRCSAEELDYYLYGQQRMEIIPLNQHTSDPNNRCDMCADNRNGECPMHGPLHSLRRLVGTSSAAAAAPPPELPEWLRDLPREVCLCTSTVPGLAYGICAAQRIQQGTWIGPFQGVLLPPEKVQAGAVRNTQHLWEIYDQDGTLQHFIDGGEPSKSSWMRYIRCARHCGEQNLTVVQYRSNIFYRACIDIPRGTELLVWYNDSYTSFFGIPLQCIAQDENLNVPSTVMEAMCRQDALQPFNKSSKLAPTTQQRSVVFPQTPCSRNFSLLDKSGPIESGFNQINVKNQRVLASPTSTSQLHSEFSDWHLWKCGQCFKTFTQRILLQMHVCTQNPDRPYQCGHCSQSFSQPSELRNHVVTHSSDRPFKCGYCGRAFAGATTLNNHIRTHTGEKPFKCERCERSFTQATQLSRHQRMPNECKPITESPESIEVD
PRDM12, sequence (Q9H4Q4 whole entry): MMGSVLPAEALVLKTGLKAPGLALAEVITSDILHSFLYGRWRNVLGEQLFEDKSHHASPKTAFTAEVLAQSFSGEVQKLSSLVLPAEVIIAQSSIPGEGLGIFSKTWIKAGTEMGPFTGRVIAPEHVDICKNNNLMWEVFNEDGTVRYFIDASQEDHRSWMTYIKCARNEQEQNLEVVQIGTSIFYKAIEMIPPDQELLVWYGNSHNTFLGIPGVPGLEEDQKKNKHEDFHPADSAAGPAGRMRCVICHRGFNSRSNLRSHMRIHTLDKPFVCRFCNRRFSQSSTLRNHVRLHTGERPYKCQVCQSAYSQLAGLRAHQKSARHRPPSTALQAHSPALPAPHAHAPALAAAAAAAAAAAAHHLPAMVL
PRDM16, sequence (Q9HAZ2 whole entry): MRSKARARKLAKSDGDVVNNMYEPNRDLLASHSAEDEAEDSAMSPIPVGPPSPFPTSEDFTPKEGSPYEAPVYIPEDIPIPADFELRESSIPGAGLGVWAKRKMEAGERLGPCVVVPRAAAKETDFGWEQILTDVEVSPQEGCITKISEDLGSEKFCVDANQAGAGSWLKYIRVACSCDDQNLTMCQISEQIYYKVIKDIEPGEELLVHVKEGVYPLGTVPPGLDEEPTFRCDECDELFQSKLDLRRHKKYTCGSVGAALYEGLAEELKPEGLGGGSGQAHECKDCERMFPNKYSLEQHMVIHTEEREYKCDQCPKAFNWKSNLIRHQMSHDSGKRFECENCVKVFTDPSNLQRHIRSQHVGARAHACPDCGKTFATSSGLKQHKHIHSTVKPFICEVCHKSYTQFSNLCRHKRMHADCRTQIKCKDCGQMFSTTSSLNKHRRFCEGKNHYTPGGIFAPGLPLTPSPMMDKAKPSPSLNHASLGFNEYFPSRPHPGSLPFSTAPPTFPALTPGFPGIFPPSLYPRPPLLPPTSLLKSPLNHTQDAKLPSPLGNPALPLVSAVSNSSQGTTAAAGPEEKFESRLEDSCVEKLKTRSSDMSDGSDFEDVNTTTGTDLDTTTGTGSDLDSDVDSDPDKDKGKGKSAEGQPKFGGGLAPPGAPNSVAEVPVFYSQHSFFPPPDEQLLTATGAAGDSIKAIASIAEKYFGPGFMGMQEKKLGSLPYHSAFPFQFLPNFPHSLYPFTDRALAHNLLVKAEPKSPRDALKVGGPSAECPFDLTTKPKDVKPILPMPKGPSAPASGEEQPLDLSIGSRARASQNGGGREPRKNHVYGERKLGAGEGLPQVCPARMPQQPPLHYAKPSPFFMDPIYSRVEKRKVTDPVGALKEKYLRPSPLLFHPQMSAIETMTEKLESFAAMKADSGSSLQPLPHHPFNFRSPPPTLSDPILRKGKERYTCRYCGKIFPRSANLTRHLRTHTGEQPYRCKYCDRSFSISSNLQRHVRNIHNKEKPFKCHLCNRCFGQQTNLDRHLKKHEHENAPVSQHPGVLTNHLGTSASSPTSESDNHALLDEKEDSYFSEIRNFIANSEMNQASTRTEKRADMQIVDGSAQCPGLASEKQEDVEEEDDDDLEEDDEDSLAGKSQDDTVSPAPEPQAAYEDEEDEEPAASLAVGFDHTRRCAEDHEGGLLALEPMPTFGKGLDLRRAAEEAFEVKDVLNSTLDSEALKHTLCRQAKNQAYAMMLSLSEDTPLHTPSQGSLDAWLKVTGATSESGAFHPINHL
PRDM8, sequence (Q9NQV8 whole entry): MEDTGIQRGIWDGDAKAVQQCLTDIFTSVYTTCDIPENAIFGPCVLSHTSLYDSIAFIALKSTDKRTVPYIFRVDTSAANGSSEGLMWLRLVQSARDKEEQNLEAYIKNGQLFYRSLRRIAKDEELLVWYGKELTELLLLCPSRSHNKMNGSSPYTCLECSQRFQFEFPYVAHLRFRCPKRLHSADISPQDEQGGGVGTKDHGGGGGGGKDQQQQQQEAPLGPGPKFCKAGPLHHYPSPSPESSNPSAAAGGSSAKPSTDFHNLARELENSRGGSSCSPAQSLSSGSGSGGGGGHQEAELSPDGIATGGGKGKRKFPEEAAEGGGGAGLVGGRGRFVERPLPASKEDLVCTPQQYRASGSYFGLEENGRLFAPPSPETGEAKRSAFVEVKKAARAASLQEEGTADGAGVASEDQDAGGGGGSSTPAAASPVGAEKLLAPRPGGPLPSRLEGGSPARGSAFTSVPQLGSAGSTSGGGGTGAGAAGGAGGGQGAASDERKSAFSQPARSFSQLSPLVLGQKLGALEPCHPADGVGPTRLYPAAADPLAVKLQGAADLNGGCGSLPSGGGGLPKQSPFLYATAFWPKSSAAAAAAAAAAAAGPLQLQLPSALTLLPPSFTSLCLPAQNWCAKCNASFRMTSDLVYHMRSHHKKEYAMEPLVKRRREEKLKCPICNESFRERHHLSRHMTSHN
PRDM11, sequence (Q9NQV5 whole entry): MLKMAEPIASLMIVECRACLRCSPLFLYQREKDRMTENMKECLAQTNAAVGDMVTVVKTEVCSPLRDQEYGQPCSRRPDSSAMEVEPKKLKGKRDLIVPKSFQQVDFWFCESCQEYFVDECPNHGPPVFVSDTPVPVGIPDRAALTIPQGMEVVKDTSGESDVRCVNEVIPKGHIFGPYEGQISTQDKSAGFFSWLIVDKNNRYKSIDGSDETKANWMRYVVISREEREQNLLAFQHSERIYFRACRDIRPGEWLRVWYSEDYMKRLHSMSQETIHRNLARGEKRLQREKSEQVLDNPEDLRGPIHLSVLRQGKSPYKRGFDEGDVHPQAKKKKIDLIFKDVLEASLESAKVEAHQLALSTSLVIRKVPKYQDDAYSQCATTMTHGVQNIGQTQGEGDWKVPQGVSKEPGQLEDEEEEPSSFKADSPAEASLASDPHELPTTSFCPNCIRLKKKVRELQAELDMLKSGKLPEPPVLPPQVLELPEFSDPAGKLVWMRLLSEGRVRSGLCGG
PRDM1, sequence (O75626 whole entry): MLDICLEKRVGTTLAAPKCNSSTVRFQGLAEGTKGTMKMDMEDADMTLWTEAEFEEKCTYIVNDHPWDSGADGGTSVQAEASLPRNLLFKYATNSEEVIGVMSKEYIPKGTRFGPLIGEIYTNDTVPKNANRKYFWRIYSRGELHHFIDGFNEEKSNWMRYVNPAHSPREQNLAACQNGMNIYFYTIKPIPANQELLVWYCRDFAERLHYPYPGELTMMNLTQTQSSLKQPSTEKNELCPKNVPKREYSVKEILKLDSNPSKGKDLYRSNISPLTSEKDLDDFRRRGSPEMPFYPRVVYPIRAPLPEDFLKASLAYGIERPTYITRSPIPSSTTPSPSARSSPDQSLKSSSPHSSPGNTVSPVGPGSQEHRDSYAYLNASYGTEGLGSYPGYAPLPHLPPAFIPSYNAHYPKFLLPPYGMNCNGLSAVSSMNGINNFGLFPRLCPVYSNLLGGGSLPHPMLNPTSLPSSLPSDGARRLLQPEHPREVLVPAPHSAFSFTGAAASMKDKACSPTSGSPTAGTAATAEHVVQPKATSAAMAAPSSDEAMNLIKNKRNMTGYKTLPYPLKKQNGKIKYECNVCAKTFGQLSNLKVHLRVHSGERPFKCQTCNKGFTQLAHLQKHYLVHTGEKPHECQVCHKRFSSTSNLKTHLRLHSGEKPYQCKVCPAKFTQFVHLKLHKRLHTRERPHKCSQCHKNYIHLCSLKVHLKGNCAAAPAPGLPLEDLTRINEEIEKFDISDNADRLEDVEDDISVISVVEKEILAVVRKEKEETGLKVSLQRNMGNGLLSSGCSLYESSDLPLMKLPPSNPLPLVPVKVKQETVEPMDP
PRDM13, sequence (Q9H4Q3 whole entry): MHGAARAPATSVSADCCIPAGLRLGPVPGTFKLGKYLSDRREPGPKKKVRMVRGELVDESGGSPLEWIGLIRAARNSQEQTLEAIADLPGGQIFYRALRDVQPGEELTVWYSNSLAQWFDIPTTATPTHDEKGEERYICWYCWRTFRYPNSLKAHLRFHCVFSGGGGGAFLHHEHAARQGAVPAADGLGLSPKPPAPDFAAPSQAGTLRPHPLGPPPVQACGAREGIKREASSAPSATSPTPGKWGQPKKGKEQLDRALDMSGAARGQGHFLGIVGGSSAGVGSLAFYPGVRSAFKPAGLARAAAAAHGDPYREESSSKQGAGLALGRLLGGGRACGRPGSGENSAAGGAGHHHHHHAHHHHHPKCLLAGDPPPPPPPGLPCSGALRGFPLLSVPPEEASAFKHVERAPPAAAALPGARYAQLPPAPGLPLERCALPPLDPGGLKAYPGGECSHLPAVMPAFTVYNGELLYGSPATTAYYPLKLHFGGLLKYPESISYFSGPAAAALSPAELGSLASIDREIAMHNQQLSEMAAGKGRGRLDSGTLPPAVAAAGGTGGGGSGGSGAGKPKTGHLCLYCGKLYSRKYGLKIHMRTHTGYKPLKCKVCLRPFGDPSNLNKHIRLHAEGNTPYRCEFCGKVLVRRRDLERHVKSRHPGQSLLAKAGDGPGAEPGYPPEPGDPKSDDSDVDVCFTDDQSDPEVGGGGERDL

COc1cc(OC)cc(-c2noc(N3CCN(C)C4(CCN(c5ccnc(C)c5)CC4)C3)n2)c1 [MRK-740]
∆ Tm (°C), DSF (PRDM10): -0.4 °C | ∆ Tm (°C), DSF (PRDM14): -2.3 °C | ∆ Tm (°C), DSF (PRDM2): -1.1 °C | ∆ Tm (°C), DSF (PRDM8): 1.4 °C | ∆ Tm (°C), DSF (PRDM13): -1.0 °C | ∆ Tm (°C), DSF (PRDM1): -0.458 °C | ∆ Tm (°C), DSF (PRDM16): -0.225 °C | ∆ Tm (°C), DSF (PRDM3): -1.3 °C | ∆ Tm (°C), DSF (PRDM6): -0.633 °C | ∆ Tm (°C), DSF (PRDM11): -0.536 °C | ∆ Tm (°C), DSF (PRDM12): -0.9 °C | Binding (Muscarinic M2): > 50% | Pattern of PRDM9 inhibition with respect to SAM (PRDM9; 20 µM peptide, SAM 22 to 350 µM): uncompetitive pattern | Ki (PRDM9; 20 µM peptide, varying SAM, read-out: Ki, estimated from asymptote of Fig 2d): ~160 nM | Pattern of PRDM9 inhibition with respect to peptide (H3 1–25) substrate (PRDM9; 350 µM SAM, peptide 1.25 to 20 µM): competitive pattern of PRDM9 inhibition | Ki (PRDM9; 350 µM SAM, varying H3 1–25 peptide, read-out: Ki, calculated from Y intercept of Fig. 2e): 65 ± 6 nM | IC50 (PRDM9; [H3 1-25]/Km 1.25, Figure 2e, average of replicates, read-out: Average IC50): 0.0749 µM | IC50 (PRDM9; [H3 1-25]/Km 1.25, Figure 2e, read-out: IC50 (µM), replicates): 0.0747 µM and 0.0785 µM and 0.0703 µM and 0.0762 µM | IC50 (PRDM9; [H3 1-25]/Km 2.5, Figure 2e, average of replicates, read-out: Average IC50): 0.0926 µM | IC50 (PRDM9; [H3 1-25]/Km 2.5, Figure 2e, read-out: IC50 (µM), replicates): 0.0843 µM and 0.0895 µM and 0.0878 µM and 0.109 µM | IC50 (PRDM9; [H3 1-25]/Km 5, Figure 2e, average of replicates, read-out: Average IC50): 0.125 µM | IC50 (PRDM9; [H3 1-25]/Km 5, Figure 2e, read-out: IC50 (µM), replicates): 0.129 µM and 0.102 µM and 0.118 µM and 0.151 µM | IC50 (PRDM9; [H3 1-25]/Km 10, Figure 2e, average of replicates, read-out: Average IC50): 0.169 µM | IC50 (PRDM9; [H3 1-25]/Km 10, Figure 2e, read-out: IC50 (µM), replicates): 0.138 µM and 0.151 µM and 0.173 µM and 0.215 µM | IC50 (PRDM9; [H3 1-25]/Km 20, Figure 2e, average of replicates, read-out: Average IC50): 0.254 µM | IC50 (PRDM9; [H3 1-25]/Km 20, Figure 2e, read-out: IC50 (µM), replicates): 0.228 µM and 0.278 µM and 0.257 µM | IC50 (PRDM9; [SAM]/Km 0.18, Figure 2d, average of replicates, read-out: Average IC50): 0.893 µM | IC50 (PRDM9; [SAM]/Km 0.18, Figure 2d, read-out: IC50 (µM), replicates): 0.838 µM and 0.633 µM and 1.03 µM and 1.07 µM | IC50 (PRDM9; [SAM]/Km 0.36, Figure 2d, average of replicates, read-out: Average IC50): 0.704 µM | IC50 (PRDM9; [SAM]/Km 0.36, Figure 2d, read-out: IC50 (µM), replicates): 0.519 µM and 0.651 µM and 0.615 µM and 1.03 µM | IC50 (PRDM9; [SAM]/Km 0.73, Figure 2d, average of replicates, read-out: Average IC50): 0.374 µM | IC50 (PRDM9; [SAM]/Km 0.73, Figure 2d, read-out: IC50 (µM), replicates): 0.349 µM and 0.395 µM and 0.369 µM and 0.382 µM | IC50 (PRDM9; [SAM]/Km 1.46, Figure 2d, average of replicates, read-out: Average IC50): 0.275 µM | IC50 (PRDM9; [SAM]/Km 1.46, Figure 2d, read-out: IC50 (µM), replicates): 0.27 µM and 0.288 µM and 0.249 µM and 0.292 µM | IC50 (PRDM9; [SAM]/Km 2.92, Figure 2d, average of replicates, read-out: Average IC50): 0.21 µM | IC50 (PRDM9; [SAM]/Km 2.92, Figure 2d, read-out: IC50 (µM), replicates): 0.18 µM and 0.228 µM and 0.197 µM and 0.236 µM | Effect of SAH on PRDM9 inhibition by MRK-740, compared with SAM (PRDM9; increasing SAH in parallel to SAM): did not have the same effect | Functional activity (in words) (Histamine H3): no functional activity
